Laboratory results reported in ChEMBL document CHEMBL1201862, “PubChem BioAssay data set” (2004).
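96-well plates; 48 h exposure; 5 concentrations. Endpoints by linear interpolation between flanking doses. Not reached: highest tested concentration assigned. The concentration for 50% growth inhibition is given as GI50.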 Active and inactive are the calls of the source. Cut-off read from the data, not from the text of the source: active = GI50 up to about 1.1 µM and inactive = higher.

Legend:
Assay in all cases: NCI anticancer screen, dose series, 48 h
[1] = test system: HCT-15
[2] = test system: OVCAR-8
[3] = test system: ACHN
[4] = test system: LOX IMVI
[5] = test system: SNB-19
[6] = test system: HOP-92
[7] = test system: SK-MEL-28
[8] = test system: A498
[9] = test system: OVCAR-4
[10] = test system: IGROV-1
[11] = test system: RPMI-8226
[12] = test system: TK-10
[13] = test system: SF-268
[14] = test system: 786-0
[15] = test system: M14
[16] = test system: SN12C
[17] = test system: Malme-3M
[18] = test system: MDA-MB-435
[19] = test system: HCT-116
[20] = test system: MOLT-4
[21] = test system: SK-MEL-2
[22] = test system: EKVX
[23] = test system: HL-60
[24] = test system: SF-539
[25] = test system: NCI-H522
[26] = test system: U-251
[27] = test system: OVCAR-3
[28] = test system: PC-3
[29] = test system: COLO 205
[30] = test system: BT-549
[31] = test system: MCF7
[32] = test system: HT-29
[33] = test system: K562
[34] = test system: CCRF-CEM
[35] = test system: SF-295
[36] = test system: NCI-H226
[37] = test system: SW-620
[38] = test system: UACC-62
[39] = test system: UACC-257
[40] = test system: UO-31
[41] = test system: SR
[42] = test system: CAKI-1
[43] = test system: NCI/ADR-RES
[44] = test system: DU-145
[45] = test system: HCC 2998
[46] = test system: SNB-75
[47] = test system: A549
[48] = test system: HOP-62
[49] = test system: SK-MEL-5
[50] = test system: NCI-H460
[51] = test system: NCI-H23
[52] = test system: MDA-N
[53] = test system: MDA-MB-231
[54] = test system: OVCAR-5
[55] = test system: KM12
[56] = test system: SK-OV-3
[57] = test system: Hs-578T
[58] = test system: RXF 393
[59] = test system: T47D

O=C(Nc1ccc(S(=O)(=O)Nc2ncccn2)cc1)c1c2ccccc2nc2ccccc12
GI50 [1]: > 100 µM | GI50 [2]: > 100 µM (inactive) | GI50 [3]: > 100 µM (inactive) | GI50 [4]: > 100 µM (inactive) | GI50 [5]: > 100 µM (inactive) | GI50 [6]: > 100 µM (inactive) | GI50 [7]: > 100 µM (inactive) | GI50 [8]: > 100 µM (inactive) | GI50 [9]: > 100 µM (inactive) | GI50 [10]: > 100 µM (inactive) | GI50 [11]: > 100 µM (inactive) | GI50 [12]: > 100 µM (inactive) | GI50 [13]: > 100 µM (inactive) | GI50 [14]: > 100 µM (inactive) | GI50 [15]: > 100 µM (inactive) | GI50 [16]: > 100 µM (inactive) | GI50 [17]: > 100 µM (inactive) | GI50 [18]: > 100 µM (inactive) | GI50 [19]: > 100 µM (inactive) | GI50 [20]: > 100 µM (inactive) | GI50 [21]: > 100 µM (inactive) | GI50 [22]: > 100 µM (inactive) | GI50 [23]: < 0.01 µM (active) | GI50 [24]: > 100 µM (inactive) | GI50 [25]: > 100 µM (inactive) | GI50 [26]: > 100 µM (inactive) | GI50 [27]: > 100 µM (inactive) | GI50 [28]: > 100 µM (inactive) | GI50 [29]: > 100 µM (inactive) | GI50 [30]: > 100 µM (inactive) | GI50 [31]: > 100 µM (inactive) | GI50 [32]: > 100 µM (inactive) | GI50 [33]: > 100 µM (inactive) | GI50 [34]: > 10 µM (inactive) | GI50 [35]: > 100 µM (inactive) | GI50 [36]: < 0.01 µM (active) | GI50 [37]: > 100 µM (inactive) | GI50 [38]: > 100 µM (inactive) | GI50 [39]: > 100 µM (inactive) | GI50 [40]: > 100 µM (inactive) | GI50 [41]: 55.7 µM (inactive) | GI50 [42]: > 100 µM (inactive) | GI50 [43]: > 100 µM (inactive) | GI50 [44]: > 100 µM (inactive) | GI50 [45]: > 100 µM (inactive) | GI50 [46]: > 100 µM (inactive) | GI50 [47]: > 100 µM (inactive) | GI50 [48]: > 100 µM (inactive) | GI50 [49]: > 100 µM (inactive) | GI50 [50]: > 100 µM (inactive) | GI50 [51]: > 100 µM (inactive) | GI50 [52]: > 100 µM (inactive) | GI50 [53]: > 100 µM (inactive) | GI50 [54]: > 100 µM (inactive) | GI50 [55]: > 100 µM (inactive) | GI50 [56]: > 100 µM (inactive)

CC(=O)Oc1cc(/C=C/c2ccc(O)cc2)cc(OC(C)=O)c1
GI50 [1]: 26.5 µM | GI50 [2]: 35.8 µM (inactive) | GI50 [3]: 9.59 µM (inactive) | GI50 [5]: 55.8 µM (inactive) | GI50 [6]: 25 µM (inactive) | GI50 [7]: 66.5 µM (inactive) | GI50 [8]: 25.4 µM (inactive) | GI50 [9]: 18.3 µM (inactive) | GI50 [10]: 64.9 µM (inactive) | GI50 [11]: 4.7 µM (inactive) | GI50 [12]: 24.9 µM (inactive) | GI50 [13]: 43.2 µM (inactive) | GI50 [14]: 37.5 µM (inactive) | GI50 [15]: 64.6 µM (inactive) | GI50 [16]: 19 µM (inactive) | GI50 [17]: 17.7 µM (inactive) | GI50 [18]: 28.1 µM (inactive) | GI50 [19]: 35.6 µM (inactive) | GI50 [20]: 16.8 µM (inactive) | GI50 [57]: 58.5 µM (inactive) | GI50 [21]: 63.5 µM (inactive) | GI50 [23]: 18.8 µM (inactive) | GI50 [24]: 12.8 µM (inactive) | GI50 [25]: 26 µM (inactive) | GI50 [26]: 29.9 µM (inactive) | GI50 [27]: 48 µM (inactive) | GI50 [28]: 21.5 µM (inactive) | GI50 [58]: 58.1 µM (inactive) | GI50 [29]: > 100 µM (inactive) | GI50 [59]: 51.3 µM (inactive) | GI50 [31]: 40 µM (inactive) | GI50 [32]: 19.3 µM (inactive) | GI50 [33]: 20.7 µM (inactive) | GI50 [35]: 28.8 µM (inactive) | GI50 [36]: 24.7 µM (inactive) | GI50 [37]: 26.1 µM (inactive) | GI50 [38]: 18.2 µM (inactive) | GI50 [39]: 30.9 µM (inactive) | GI50 [40]: 36.4 µM (inactive) | GI50 [41]: 17.3 µM (inactive) | GI50 [42]: 35.7 µM (inactive) | GI50 [43]: 16.3 µM (inactive) | GI50 [44]: 27.2 µM (inactive) | GI50 [46]: 22.1 µM (inactive) | GI50 [47]: 24.8 µM (inactive) | GI50 [48]: 48.2 µM (inactive) | GI50 [49]: 14.5 µM (inactive) | GI50 [50]: 33.9 µM (inactive) | GI50 [51]: 11.7 µM (inactive) | GI50 [53]: 25.5 µM (inactive) | GI50 [54]: 46 µM (inactive) | GI50 [55]: 24.1 µM (inactive) | GI50 [56]: > 100 µM (inactive)

Oc1cn(-c2ccc(Cl)cc2)nc1-c1nnc(-c2ccccc2)o1
GI50 [1]: 0.262 µM | GI50 [2]: 0.277 µM (active) | GI50 [5]: 3.03 µM (inactive) | GI50 [6]: 18.8 µM (inactive) | GI50 [7]: 15.2 µM (inactive) | GI50 [8]: 9.4 µM (inactive) | GI50 [9]: 19.5 µM (inactive) | GI50 [10]: 0.989 µM (active) | GI50 [11]: 0.728 µM (active) | GI50 [12]: 0.17 µM (active) | GI50 [13]: 0.34 µM (active) | GI50 [16]: 1.43 µM (inactive) | GI50 [17]: 8.34 µM (inactive) | GI50 [18]: 0.152 µM (active) | GI50 [19]: 0.0769 µM (active) | GI50 [20]: 0.193 µM (active) | GI50 [57]: 0.484 µM (active) | GI50 [21]: 16.9 µM (inactive) | GI50 [22]: 1.16 µM (inactive) | GI50 [23]: 0.181 µM (active) | GI50 [24]: 0.411 µM (active) | GI50 [25]: 1.1 µM (active) | GI50 [26]: 0.2 µM (active) | GI50 [27]: 0.404 µM (active) | GI50 [28]: 1.43 µM (inactive) | GI50 [58]: 1.14 µM (inactive) | GI50 [29]: 1.87 µM (inactive) | GI50 [59]: 3.86 µM (inactive) | GI50 [31]: 0.263 µM (active) | GI50 [32]: 2.83 µM (inactive) | GI50 [33]: 0.122 µM (active) | GI50 [35]: 0.102 µM (active) | GI50 [36]: 0.931 µM (active) | GI50 [37]: 1.94 µM (inactive) | GI50 [38]: 2.09 µM (inactive) | GI50 [39]: 1.63 µM (inactive) | GI50 [40]: 0.726 µM (active) | GI50 [42]: 0.359 µM (active) | GI50 [43]: 0.215 µM (active) | GI50 [44]: 2.99 µM (inactive) | GI50 [46]: > 22.6 µM (inactive) | GI50 [47]: 0.118 µM (active) | GI50 [48]: 0.132 µM (active) | GI50 [49]: 0.268 µM (active) | GI50 [50]: 0.236 µM (active) | GI50 [51]: 0.155 µM (active) | GI50 [53]: 6.01 µM (inactive) | GI50 [54]: 1.58 µM (inactive) | GI50 [55]: 0.0847 µM (active) | GI50 [56]: 12.9 µM (inactive)
